Patent publication US12390437B2, “Itaconic acid derivatives and uses thereof intreating an inflammatory disease or a disease associated with an undesirable immune response” (Sitryx Therapeutics Limited, priority 2019, dated 2025)
pIC50: −log10 of the molar value. Like-named read-outs stand apart in the source and are kept apart here.

Assays:
[1] = Mouse pharmacokinetic study, intravenous dosing; assay type: in vivo; details: 10 mg/kg i.v.; for concentration at 0.05 h / concentration at 0.25 h / concentration at 0.5 h / concentration at 1 h / concentration at 2 h / concentration at 4 h / concentration at 6 h / concentration at 0.133 h / concentration at 8 h: male, C57BL/6, mouse, iv, plasma, read-out: Parent compound concentration following intravenous administration
Method in brief: (§1)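 Young adult male C57BL/6 mice get a single 10 mg/kg IV or 100 mg/kg oral dose. Semi-serial plasma sampling, three mice per point, and LC-MS/MS quantitation follow.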

[2] = Mouse pharmacokinetic study, oral administration; assay type: in vivo; details: for concentration at 0.25 h / concentration at 0.5 h / concentration at 1 h / concentration at 2 h / concentration at 4 h / concentration at 8 h / concentration at 24 h / concentration at 0.083 h / concentration at 6 h: male, C57BL/6, mouse, plasma, po, 100 mg/kg, male C57BL/6 mice, oral gavage 100 mg/kg; for concentration at 0.25 h: read-out: Parent compound concentrations following oral administration, Time 0.25 h; for concentration at 0.5 h: read-out: Parent compound concentrations following oral administration, Time 0.5 h; for concentration at 1 h: read-out: Parent compound concentrations following oral administration, Time 1 h; for concentration at 2 h: read-out: Parent compound concentrations following oral administration, Time 2 h; for concentration at 4 h: read-out: Parent compound concentrations following oral administration, Time 4 h; for concentration at 8 h: read-out: Parent compound concentrations following oral administration, Time 8 h; for concentration at 24 h: read-out: Parent compound concentrations following oral administration, Time 24 h; for concentration at 0.083 h: read-out: Parent compound concentrations following oral administration, Time 0.083 h; for concentration at 6 h: read-out: Parent compound concentrations following oral administration, Time 6 h
Method in brief: as §1

[3] = test system: IL-1β cytokine output from THP-1s; experiment: THP-1 AlphaLISA IL-1β cytokine assay; assay type: cell-based, human; details: Homo sapiens, read-out: IL-1β (IC50)
Method in brief: (§2)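 Cells are differentiated with PMA over 72 h, switched to 1% FBS medium and treated with compound for 30 min before LPS stimulation for 24 h. Nigericin is added for a final hour, and secreted cytokine is measured by AlphaLISA, with IC50 fitted from percent inhibition.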

[4] = test system: IL-6 cytokine output from THP-1s; experiment: THP-1 AlphaLISA IL-6 cytokine assay; assay type: cell-based, human; details: Homo sapiens; PMA-differentiated THP-1 cells, LPS 24 hr then Nigericin 1 hour
Method in brief: as §2

[5] = THP-1, PMA-differentiated THP-1 cells, LPS 24 hr then Nigericin 1 hour

Row | SMILES | concentration at 0.05 h [1] [ng/mL] | concentration at 0.25 h [1] [ng/mL] | concentration at 0.5 h [1] [ng/mL] | concentration at 1 h [1] [ng/mL] | concentration at 2 h [1] [ng/mL] | concentration at 4 h [1] [ng/mL] | concentration at 6 h [1] [ng/mL] | concentration at 0.25 h [2] [ng/mL] | concentration at 0.5 h [2] [ng/mL] | concentration at 1 h [2] [ng/mL] | concentration at 2 h [2] [ng/mL] | concentration at 4 h [2] [ng/mL] | concentration at 8 h [2] [ng/mL] | concentration at 24 h [2] [ng/mL] | pIC50 [3, 5] | pIC50 [4] | concentration at 0.133 h [1] [ng/mL] | concentration at 8 h [1] [ng/mL] | concentration at 0.083 h [2] [ng/mL] | concentration at 6 h [2] [ng/mL] | also measured
1 | C=C(CC(=O)O[C@@H](C)CCCCCC)C(=O)OCCC(=O)O [Example 84, (S)-3-((2-methylene-4-(octan-2-yloxy)-4-oxobutanoyl)oxy)propanoic acid] | 5580 | 1030 | 217 | 34 | 6.5 | < 2 | < 2 | 9090 | 5120 | 3310 | 1000 | 368 | 217 | < 31 | 4.84 | 4.66 |  |  |  |  | 
2 | C=C(CC(=O)O[C@@H](C)CCCCCC)C(=O)OCC(=O)O [Example 89, (S)-2-((2-methylene-4-(octan-2-yloxy)-4-oxobutanoyl)oxy)acetic acid] | 27800 | 7680 | 2300 | 430 | 65 | 6.8 | < 4 | 39100 | 28500 | 14000 | 4740 | 918 | 16 | 6.8 | 4.76 | 4.90 | 12400 | < 4 | 44000 | 582 | 
3 | C=C(CC(=O)OC1CC2(CCC2)C1)C(=O)OCC(=O)O [Example 96, 2-((2-methylene-4-oxo-4-(spiro[3.3]heptan-2-yloxy)butanoyl)oxy)acetic acid] | 15100 | 659 | 169 | 6.4 | 3 | < 0.8 | < 0.8 | 4770 | 3780 | 1550 | 810 | 856 | 443 | < 0.8 | 4.80 | 4.33 | 3590 | < 0.8 | 15300 | 330 | 
4 | C=C(CC(=O)OC)C(=O)OC [dimethyl itaconate, reference compound] | 874 | < 24 | < 24 | < 24 | < 24 | < 24 | < 24 | < 24 | < 24 | < 24 | < 24 | < 24 | < 24 | < 24 | < 4.00 | 4.00 | < 24 | < 24 | < 24 | < 24 | Quantifiability in plasma following intravenous dosing ([1]; mouse): only quantifiable at one timepoint; Quantifiability in plasma following oral administration ([2]; mouse, 100 mg/kg oral): below the limit of quantification at all timepoints; pIC50 ([3]; THP-1, Table 10, assay of Biological Example 1 (THP-1)): < 4.00
